Laboratory results published in ChEMBL document CHEMBL4765482, “Novel Sigma 1 Receptor Antagonists as Potential Therapeutics for Pain Management” (J Med Chem, 2021).
Active and inactive are the calls of the source.

Columns and labels:
[1] = target: T1, Sigma intracellular receptor 2 (Homo sapiens, UniProt Q5BJF2); assay: Displacement of [3H]-DTG from sigma-2 receptor in human Jurkat cell membrane incubated for 1 hr by liquid scintillation counting method; type: cell membranes
[2] = target: T2, Sigma non-opioid intracellular receptor 1 (Homo sapiens, UniProt Q99720); assay: Displacement of [3H]-pentazocine from sigma-1 receptor in human Jurkat cell membrane at 100 nM incubated for 2 hr by liquid scintillation counting method relative to control; type: cell membranes
T2 sequence (Q99720 whole entry): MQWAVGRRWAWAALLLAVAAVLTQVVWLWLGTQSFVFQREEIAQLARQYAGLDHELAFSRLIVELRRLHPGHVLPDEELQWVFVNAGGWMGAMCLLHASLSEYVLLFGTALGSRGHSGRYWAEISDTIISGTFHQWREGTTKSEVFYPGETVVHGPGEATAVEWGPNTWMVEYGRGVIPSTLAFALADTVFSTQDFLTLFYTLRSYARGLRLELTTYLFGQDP

[3] = Intrinsic clearance in rat liver microsomes at 10 uM incubated for 1 hr in presence of NADPH by LC-MS/MS analysis; type: ADME, Microsome; conditions: read-out: CLH
[4] = Intrinsic clearance in human liver microsomes at 10 uM incubated for 1 hr in presence of NADPH by LC-MS/MS analysis; type: ADME, Microsome; conditions: read-out: CLH
[5] = Metabolic stability in rat liver microsomes assessed as half-life at 10 uM incubated for 1 hr in presence of NADPH by LC-MS/MS analysis; type: ADME, Microsome
[6] = Metabolic stability in human liver microsomes assessed as half-life at 10 uM incubated for 1 hr in presence of NADPH by LC-MS/MS analysis; type: ADME, Microsome
[7] = target: T3, Sigma non-opioid intracellular receptor 1 (Cavia porcellus, UniProt Q60492); assay: Displacement of [3H]-(+)-pentazocine from sigma-1 receptor in guinea pig brain membranes incubated for 1 hr by liquid scintillation counting method; type: cell membranes, Membrane
T3 sequence (Q60492 whole entry): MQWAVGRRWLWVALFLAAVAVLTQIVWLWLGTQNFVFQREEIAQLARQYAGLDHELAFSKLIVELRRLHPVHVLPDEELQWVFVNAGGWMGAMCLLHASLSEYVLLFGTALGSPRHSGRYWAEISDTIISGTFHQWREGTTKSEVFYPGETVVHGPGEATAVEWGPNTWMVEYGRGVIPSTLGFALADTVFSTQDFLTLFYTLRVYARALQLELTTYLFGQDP

[8] = Displacement of [3H]-DTG from sigma-2 receptor in guinea pig brain membrane incubated for 1 hr by liquid scintillation counting method; type: cell membranes, Cavia porcellus
[9] = AUC (0 to 4 hrs) in Sprague-Dawley rat plasma at 10 mg/kg, ip after 0.25 to 4 hrs by LC-MS/MS analysis; type: ADME, organism-based; design: route intraperitoneal, dose 10 mg/kg, time upper 4 hrs, time lower 0.25 hrs
[10] = AUC (0 to infinity) in Sprague-Dawley rat plasma at 10 mg/kg, ip after 0.25 to 4 hrs by LC-MS/MS analysis; type: ADME, organism-based; design: route intraperitoneal, time 0.25-4 hrs, dose 10 mg/kg
[11] = Cmax in Sprague-Dawley rat plasma at 10 mg/kg, ip measured after 0.25 to 4 hrs by LC-MS/MS analysis; type: ADME, organism-based; design: route intraperitoneal, time upper 4 hrs, time lower 0.25 hrs, dose 10 mg/kg
[12] = test system: Rattus norvegicus; assay: Antinociceptive activity in formalin-induced Sprague-Dawley rat model of nociceptive pain assessed as decrease in time spent on licking during acute phase at 40 mg/kg, ip administered 30 mins before formalin stimulation and measured at 5 mins interval for 10 mins; type: functional, organism-based; conditions: time 40.0 min
[13] = test system: Rattus norvegicus; assay: Analgesic activity in Sprague-Dawley rat model of paclitaxel-induced neuropathic pain assessed as decrease in mechanical allodynia by measuring reduction in pain threshold at 20 mg/kg, ip measured at 0.5 to 1.5 hrs by Von Frey assay relative to control; type: functional; design: scale not given: the % may be the effect or the level left; conditions: time 0.5-1.5 hrs
[14] = MRT (0 to infinity) in Sprague-Dawley rat plasma at 10 mg/kg, ip after 0.25 to 4 hrs by LC-MS/MS analysis; type: ADME, organism-based; conditions: time 0.25-4 hrs
[15] = target: T3, Sigma non-opioid intracellular receptor 1
[16] = target: Kappa-type opioid receptor (Homo sapiens) (UniProt P41145); assay: Displacement of [3H]-Diprenorphine from recombinant human full-length kappa opiod receptor expressed in human HEK293 cells at 1 uM incubated for 60 mins by scintillation counting method; type: cell-based
Kappa-type opioid receptor (Homo sapiens), sequence (P41145 whole entry): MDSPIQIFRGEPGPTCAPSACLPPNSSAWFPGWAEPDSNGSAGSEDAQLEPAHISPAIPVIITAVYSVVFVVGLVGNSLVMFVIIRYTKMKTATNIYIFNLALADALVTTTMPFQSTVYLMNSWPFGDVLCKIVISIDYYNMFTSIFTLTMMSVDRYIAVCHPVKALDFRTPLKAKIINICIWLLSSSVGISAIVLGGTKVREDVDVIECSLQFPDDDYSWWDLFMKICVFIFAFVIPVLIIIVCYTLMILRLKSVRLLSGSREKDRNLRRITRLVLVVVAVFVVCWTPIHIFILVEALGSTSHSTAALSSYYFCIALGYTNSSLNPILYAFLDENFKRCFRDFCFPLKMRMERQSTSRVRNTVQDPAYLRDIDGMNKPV

[17] = Half life in Sprague-Dawley rat plasma at 10 mg/kg, ip measured after 0.25 to 4 hrs by LC-MS/MS analysis; type: ADME, organism-based; conditions: time 0.25-4 hrs
[18] = test system: Rattus norvegicus; assay: Analgesic activity in Sprague-Dawley rat model of paclitaxel-induced neuropathic pain assessed as reduction in cold hyperalgesia by measuring increase in paw withdrawal latency at 20 to 40 mg/kg, ip measured at 1 to 2 hrs post dosing by Von Frey assay relative to control; type: functional; design: scale not given: the % may be the effect or the level left; conditions: dose 20-40 mg/kg, time 1-2 hrs
[19] = test system: Rattus norvegicus; assay: Antinociceptive activity in formalin-induced Sprague-Dawley rat model of nociceptive pain assessed as decrease in time spent on licking during late phase at 20 to 40 mg/kg, ip administered 30 mins before formalin stimulation and measured at 5 mins interval for 10 to 35 mins; type: functional, organism-based; conditions: dose 20-40 mg/kg
[20] = target: Mu-type opioid receptor (Homo sapiens) (UniProt P35372); assay: Displacement of [3H]-Diprenorphine from recombinant human full-length mu opiod receptor expressed in […] cells at 1 uM incubated for 60 mins by scintillation counting method; type: cell-based; conditions: HEK293
Mu-type opioid receptor (Homo sapiens), sequence (P35372 whole entry): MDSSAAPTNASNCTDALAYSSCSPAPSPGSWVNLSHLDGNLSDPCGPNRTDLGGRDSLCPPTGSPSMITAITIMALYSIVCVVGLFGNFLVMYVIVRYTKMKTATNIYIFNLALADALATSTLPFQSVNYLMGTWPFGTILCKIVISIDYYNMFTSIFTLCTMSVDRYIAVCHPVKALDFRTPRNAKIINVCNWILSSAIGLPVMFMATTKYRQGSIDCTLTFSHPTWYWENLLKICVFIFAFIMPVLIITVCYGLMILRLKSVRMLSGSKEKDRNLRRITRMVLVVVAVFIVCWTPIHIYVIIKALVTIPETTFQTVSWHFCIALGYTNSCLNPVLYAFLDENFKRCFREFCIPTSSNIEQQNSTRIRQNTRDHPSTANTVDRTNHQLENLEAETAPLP

[21] = target: hERG (KCNH2) (Homo sapiens, UniProt Q12809); assay: Binding affinity to human ERG at 1 uM relative to control; type: cell-based; conditions: HEK293 cells, read-out: Activity
hERG (KCNH2), sequence (Q12809 whole entry): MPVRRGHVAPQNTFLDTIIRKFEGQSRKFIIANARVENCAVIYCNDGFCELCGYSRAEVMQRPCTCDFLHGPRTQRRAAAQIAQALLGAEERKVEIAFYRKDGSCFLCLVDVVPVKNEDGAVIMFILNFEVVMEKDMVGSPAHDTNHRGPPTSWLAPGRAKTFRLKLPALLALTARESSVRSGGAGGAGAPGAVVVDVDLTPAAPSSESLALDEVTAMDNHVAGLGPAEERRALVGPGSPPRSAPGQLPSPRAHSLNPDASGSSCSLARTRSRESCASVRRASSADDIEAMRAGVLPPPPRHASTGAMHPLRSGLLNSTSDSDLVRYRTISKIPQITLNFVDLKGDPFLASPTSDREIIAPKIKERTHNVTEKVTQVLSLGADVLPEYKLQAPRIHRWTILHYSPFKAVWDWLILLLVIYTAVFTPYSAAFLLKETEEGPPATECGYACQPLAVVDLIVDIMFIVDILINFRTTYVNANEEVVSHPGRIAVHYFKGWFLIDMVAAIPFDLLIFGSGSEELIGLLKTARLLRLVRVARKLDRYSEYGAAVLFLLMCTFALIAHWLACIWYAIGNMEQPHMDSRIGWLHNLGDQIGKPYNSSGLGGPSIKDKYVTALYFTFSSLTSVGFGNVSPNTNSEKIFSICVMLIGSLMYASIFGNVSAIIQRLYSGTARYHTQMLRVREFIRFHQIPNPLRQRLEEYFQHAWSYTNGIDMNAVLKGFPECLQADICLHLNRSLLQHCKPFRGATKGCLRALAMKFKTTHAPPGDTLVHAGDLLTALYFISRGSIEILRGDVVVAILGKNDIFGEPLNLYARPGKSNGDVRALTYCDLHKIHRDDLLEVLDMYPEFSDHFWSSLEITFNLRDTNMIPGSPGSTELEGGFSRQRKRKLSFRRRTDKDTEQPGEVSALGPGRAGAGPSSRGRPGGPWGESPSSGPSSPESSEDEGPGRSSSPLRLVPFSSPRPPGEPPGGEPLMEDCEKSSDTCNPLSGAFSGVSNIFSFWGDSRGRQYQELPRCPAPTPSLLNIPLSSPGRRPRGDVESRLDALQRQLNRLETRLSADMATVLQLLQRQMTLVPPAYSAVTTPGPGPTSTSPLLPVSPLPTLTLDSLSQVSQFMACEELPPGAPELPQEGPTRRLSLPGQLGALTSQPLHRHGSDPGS

[22] = Ratio of drug concentration in brain to plasma in Sprague-Dawley rat at 10 mg/kg, ip by LC-MS/MS analysis; type: ADME, organism-based; conditions: read-out: BPR
[23] = target: T2, Sigma non-opioid intracellular receptor 1; assay: Displacement of [3H]-pentazocine from sigma-1 receptor in human Jurkat cell membrane incubated for 2 hr by liquid scintillation counting method; type: cell membranes
[24] = target: Sigma non-opioid intracellular receptor 1 (Cavia porcellus) (UniProt Q60492); assay: Ratio of Ki for displacement of [3H]-(+)-pentazocine from sigma-1 receptor to Ki for displacement of [3H]-(+)-pentazocine from sigma-1 receptor in guinea pig brain membranes in presence of phenytoin; type: cell membranes; conditions: Membrane
Sigma non-opioid intracellular receptor 1 (Cavia porcellus), sequence (Q60492 whole entry): as the sequence (Q60492 whole entry) above

[25] = Tmax in Sprague-Dawley rat plasma at 10 mg/kg, ip measured after 0.25 to 4 hrs by LC-MS/MS analysis; type: ADME, organism-based; conditions: time 0.25-4 hrs
[26] = target: Delta-type opioid receptor (Homo sapiens) (UniProt P41143); assay: Displacement of [3H]-Naltrindole from recombinant human full-length delta opiod receptor expressed in human HEK293 cells at 1 uM incubated for 60 mins by scintillation counting method; type: cell-based
Delta-type opioid receptor (Homo sapiens), sequence (P41143 whole entry): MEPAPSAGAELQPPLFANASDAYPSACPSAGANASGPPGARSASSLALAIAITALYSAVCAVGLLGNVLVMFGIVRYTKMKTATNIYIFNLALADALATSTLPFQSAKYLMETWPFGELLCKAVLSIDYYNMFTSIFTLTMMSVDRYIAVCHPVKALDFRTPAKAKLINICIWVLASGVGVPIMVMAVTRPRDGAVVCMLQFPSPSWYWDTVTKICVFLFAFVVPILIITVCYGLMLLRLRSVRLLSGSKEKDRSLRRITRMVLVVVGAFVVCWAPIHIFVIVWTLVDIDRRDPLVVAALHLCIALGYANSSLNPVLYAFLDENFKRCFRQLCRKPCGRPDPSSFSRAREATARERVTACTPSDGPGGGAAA

[27] = Toxicity in Sprague-Dawley rat assessed as effect on motor coordination at 10 to 20 mg/kg, ip measured at 30 to 120 mins post treatment by rotarod test; type: organism-based; conditions: in vivo, dose lower 10 mg/kg, time lower 30 min, dose upper 20 mg/kg, time upper 120 min
[28] = target: T1, Sigma intracellular receptor 2; assay: Displacement of [3H]-DTG from sigma-2 receptor in human Jurkat cell membrane at 1000 nM incubated for 1 hr by liquid scintillation counting method relative to control; type: cell membranes; conditions: filed as antagonist
[29] = test system: Rattus norvegicus; assay: Analgesic activity in Sprague-Dawley rat model of paclitaxel-induced neuropathic pain assessed as decrease in mechanical allodynia by measuring reduction in pain threshold at 100 mg/kg, ip measured at 0.5 to 1.5 hrs by Von Frey assay relative to control; type: functional, organism-based; conditions: time 0.5-1.5 hrs
[30] = test system: Rattus norvegicus; assay: Analgesic activity in Sprague-Dawley rat model of paclitaxel-induced neuropathic pain assessed as reduction in cold hyperalgesia by measuring increase in paw withdrawal latency at 100 mg/kg, ip measured at 1 to 2 hrs post dosing by Von Frey assay relative to control; type: functional, organism-based; conditions: time 1-2 hrs
[31] = Toxicity in Sprague-Dawley rat assessed as effect on motor coordination at 100 mg/kg, ip measured at 60 to 120 mins post treatment by rotarod test; type: organism-based; conditions: in vivo, time 60-120 min
[32] = test system: Rattus norvegicus; assay: Antinociceptive activity in formalin-induced Sprague-Dawley rat model of nociceptive pain assessed as decrease in time spent on licking during late phase at 100 mg/kg, ip administered 30 mins before formalin stimulation and measured at 5 mins interval for 10 to 35 mins; type: functional, organism-based

T1 sequence (Q5BJF2 whole entry): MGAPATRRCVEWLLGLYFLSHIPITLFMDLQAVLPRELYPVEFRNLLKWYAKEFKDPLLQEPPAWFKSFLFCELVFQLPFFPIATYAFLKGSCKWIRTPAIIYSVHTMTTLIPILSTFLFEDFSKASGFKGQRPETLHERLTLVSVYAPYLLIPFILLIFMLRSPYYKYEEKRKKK

SMILES | Ki [1] | microsomal CLint at 10 µM [3] | microsomal CLint at 10 µM [4] | half-life at 10 µM [5] | half-life at 10 µM [6] | Ki [23] | other results
Cn1nc(CN2CCCC2)nc1-c1cccc(Oc2ccccc2)c1 | > 1000 nM |  |  |  |  |  | Activity [2]: 21%
Cn1nc(CN2CCCC2)nc1-c1ccc2cc(Cl)sc2c1 | 1000 nM |  |  |  |  |  | 
Cc1cc(OCCN2CCOCC2)nn1-c1ccc2ccccc2c1 |  | 190 µL/min/mg | 10.7 µL/min/mg | 3.6 min | 64.6 min |  | Ki [7]: 3 nM; Ki [8]: > 1000 nM
Cn1nc(CN2CCCC2)nc1-c1ccc(C(C)(C)C)cc1 | > 1000 nM | 72 µL/min/mg | 5.8 µL/min/mg | 9.6 min | 120 min | 7.5 nM | AUC(0-t) [9]: 633 ng·h/mL; AUC(0-inf) [10]: 635 ng·h/mL; Cmax [11]: 932 ng/mL; Activity [12]: Active; Activity [13]: 180%; Ki [7]: 2.7 nM; MRT inf [14]: 43.8 min; Ki [15]: 3.4 nM; Activity [16]: inactive; half-life [17]: 33.6 min; Activity [18]: 120%; Activity [19]: Active; Activity [20]: inactive; activity at 1 µM [21]: 8.4%; Kp [22]: 12; Ki [8]: 474 nM; Ratio Ki [24]: 0.8; Tmax [25]: 15 min; Activity [26]: inactive; Activity [27]: Non-Toxic
CC(C)n1nc(CN2CCCC2)nc1-c1ccc(C(C)(C)C)cc1 |  |  |  |  |  | 2.2 nM | 
Cn1nc(CN2CCCC2)nc1-c1ccc(Oc2ccccc2)cc1 |  |  |  |  |  |  | Activity [2]: 39%; Activity [28]: 65%
Cn1nc(CN2CCCC2)nc1-c1ccc2ccsc2c1 | > 1000 nM |  |  |  |  | 64 nM | 
NCC1(CC(=O)O)CCCCC1 [GABAPENTIN] |  |  |  |  |  |  | Activity [29]: Active; Activity [30]: inactive; Activity [31]: Toxic; Activity [32]: Active
Cn1nc(CN2CCCC2)nc1-c1ccc2c(c1)CCCC2 |  |  |  |  |  | 26 nM | 
CC(C)c1ccc(-c2nc(CN3CCCC3)nn2C)cc1 | 1000 nM |  |  |  |  | 96 nM | 
Cc1ccc(-c2nc(CN3CCCC3)nn2C)cc1 | > 1000 nM |  |  |  |  |  | Activity [2]: 3%
Cn1nc(CN2CCCC2)nc1-c1ccc(C2(C(F)(F)F)CC2)cc1 |  | 207 µL/min/mg | 4 µL/min/mg | 3.3 min | 172 min |  | 
Cn1nc(CN2CCCC2)nc1-c1cccc(C2(C(F)(F)F)CC2)c1 |  | 144 µL/min/mg | 7.9 µL/min/mg | 4.8 min | 87.6 min |  | 
Cn1nc(CN2CCCC2)nc1-c1ccc2c(c1)CCC2 | 1000 nM |  |  |  |  |  | Activity [2]: 37%
CN(Cc1nc(-c2ccc(C(C)(C)C)cc2)n(C)n1)CC1CC1 |  | 196 µL/min/mg | 11.3 µL/min/mg | 3.5 min | 61.3 min |  | Ki [8]: 324 nM
Cn1nc(CN2CCCC2)nc1-c1ccc(C2CCCCC2)cc1 |  |  |  |  |  | 20 nM | Activity [28]: 89%
Cc1ccc(-c2nc(CN3CCCC3)nn2C)cc1C | > 1000 nM |  |  |  |  |  | Activity [2]: 28%
Cn1nc(CN2CCN(c3ccccc3)CC2)nc1-c1ccc(C(C)(C)C)cc1 |  | 29.8 µL/min/mg | 18.6 µL/min/mg | 23.3 min | 37.3 min |  | Ki [7]: 14 nM; Ki [8]: > 1000 nM
Cn1nc(CN2CCCC2)nc1-c1cccc(-c2ccccc2)c1 | 1000 nM |  |  |  |  |  | Activity ([2]; filed as antagonist): 40%
